Laboratory results from patent US8093209B2, “Methods of suppressing microglial activation and systemic inflammatory responses” (Cognosci, Incorporated, priority 2002, dated 2012).
“Also recorded” adds a separate entry of the source.

What was measured:
[1] = test system: thioglycollate-elicited peritoneal macrophages; assay: [Ca2+]i in Fura-2/AM treated single macrophages, digital imaging microscopy (Example 10); assay type: cell-based, mouse; settings: for increase in [Ca2+]i levels compared to buffer: macrophage
Protocol: (§1) Macrophage Harvesting. All experiments involving animals were first approved by the Duke Institutional Animal Care and Use Committee. Pathogen-free female C57BL/6 mice and ApoE deficient mice previously backcrossed 10 times to the C57BL/6 strain were obtained from the Jackson Laboratory (Bar Harbor, Me.). Thioglycollate-elicited peritoneal macrophages were harvested by peritoneal lavage using 10 ml of ice-cold Hanks' balanced salt solution containing 10 mM HEPES and 3.5 mM NaHCO3 (HHBSS), pH 7.4. The macrophages were pelleted by centrifugation at 4° C. at ˜800×g for 10 min and resuspended in RPMI 1640 media supplemented with 25 mM HEPES, 12.5 U/ml penicillin, 6.5 mg/ml streptomycin, and 5% fetal bovine serum.
Measurement of [Ca^2+]i in apoE and peptide treated macrophage. Changes in [Ca^2+]i levels in Fura-2/AM treated single cells were quantified using digital imaging microscopy in accordance with known techniques. Macrophages were plated on glass coverslips sitting in 35 mm Petri dishes at a density of 1.5×10^5 cells/cm^2, and allowed to adhere for 2 h in a humidified 5% CO2 incubator at 37° C. The non-adherent cells were aspirated and the monolayers were washed twice with HHBSS. 4 μM Fura-2/AM was incubated with the cells for thirty min in the dark at room temperature and [Ca^2+]i was subsequently measured using a digital imaging microscope in accordance with known techniques. […] To determine if signaling resulted from ligation of the ligand to LRP, cells were preincubated with a 1000-fold molar excess of RAP or 10 mM NiCl2, both of which inhibit ligand binding to LRP, for 5 min prior to stimulation with apoE or peptide. In experiments in which the involvement of a G protein was assessed, monolayers were incubated with 1 μg/ml pertussis toxin for 12 h at 37° C. and Ca^2+ measurements were made as stated above.

[2] = test system: thioglycollate-elicited peritoneal macrophages; assay: IP3 formation in myo-[2-3H]inositol-labeled macrophages (Example 10); assay type: cell-based, mouse
Protocol: as §1, with “serum. Cell viability was determined by the trypan blue exclusion method and was consistently greater then 95%.” for “serum.”
Measurement of IP3 in apoE treated macrophage and effect of pertussis toxin. The formation of IP3 in myo-[2-^3H]inositol-labeled macrophages under various experimental conditions was quantified in accordance with known techniques. Macrophage were plated in 6 well plates (4×10^6 cells/well) and allowed to adhere at 37° C. for 2 h in a humidified 5% CO2 incubator. Medium was aspirated from the monolayers and RPMI 1640 medium containing 0.25% BSA and myo-[2-^3H]inositol (specific activity 10-20 Ci/mmol) was added to each well. […] Radioactivity was determined by placing aliquots in a liquid scintillation counter to determine radioactivity. […] The effect on IP3 formation was measured as described above.

[3] = test system: thioglycollate-elicited peritoneal macrophages; assay: Competition between apoE and apoE mimetic peptide: [Ca2+]i on sequential stimulation; assay type: cell-based, mouse
Protocol: Fura-2/AM loaded macrophages were incubated overnight, plated on glass cover slips, stimulated with one ligand, and changes in [Ca^2+]i quantified. Cells were then stimulated with second ligand and Ca^2+ measurements repeated.

[4] = test system: primary rat neuronal/glial cultures exposed to NMDA; assay: NMDA-induced LDH release in primary neuronal-glial cultures; assay type: cell-based; settings: peptide 0.3-10 μM, 100 μM NMDA
Protocol: (§2) Primary neuronal-glial cultures were prepared from fetal Sprague-Dawley rat brains at 18 days of gestation as previously described (Pearlstein et al., 1998). Brains were harvested from 10-15 pups and dissected to separate cortex from meninges and subcortical structures using anatomical landmarks. Cortices were pooled and minced into 2 mm^3 pieces in a buffered salt solution supplemented with 20 mM HEPES buffer, pH 7.4, containing 0.25% trypsin. The tissue was incubated for 20 minutes at 37° C. in a 5% CO2/95% room air atmosphere, and washed twice with ice-cold, glutamine-free minimum essential medium (MEM; Life Technologies) containing 15 mM glucose, 5% fetal bovine serum (GIBCO), 5% horse serum (GIBCO), and 1% DNase-I (Sigma Chemical Co., St. Louis, Mo., USA). Tissue pieces were dissociated by trituration through a fire-polished 9-inch Pasteur pipette (I.D.=0.7 mm). The resultant suspension was centrifuged at 50×g for 10 min, the supernatant discarded, and the pellet resuspended in growth medium (MEM supplemented with 15 mM glucose, 5% fetal bovine serum, and 5% horse serum). The dissociated cells were plated to achieve a confluent monolayer using 4×10^5 cells per well in poly-D-lysine coated, 24-well culture plates (Falcon 3047; Becton Dickinson Co., Lincoln Park, N.J., USA). Cultures were maintained undisturbed at 37° C. in a humidified 5% CO2/95% room air atmosphere for 13-16 days prior to use.
Mature cultures (13-16 days in vitro) were washed with Mg^2+-free buffered salt solution (BSS) containing 20 mM HEPES buffer (pH7.4) and 1.8 mM CaCl2, prior to the addition of NMDA. Following NMDA exposure, cultures were maintained for 30 minutes at 37° C. in a 5% CO2/95% air atmosphere. The medium containing NMDA was then removed and replaced with MEM supplemented with 20 mM glucose. The cultures were returned to the incubator for 24 h. In all experiments, cellular damage was assessed at 24 h after exposure to NMDA by measurement of the activity of lactate dehydrogenase (LDH) released into the medium as described below. The non-competitive NMDA receptor antagonist, MK-801 (Tocris Cookson Ins., St. Louis, Mo.) at a concentration of 10 μM was used as a positive control. Preliminary dose-response studies were performed to determine the concentration of NMDA (100 μM) required to effect a near-maximal LDH release (ED90) as used in the present study.
The effect of human recombinant apoE (Panverra, Madison, Wis.) on 100 μM NMDA-induced LDH release was assessed and the dose-response curve was obtained (apoE: 0.1-10 μM final concentration). ApoE3, the most common human isoform, was added to the cultures 30 minutes prior to and removed following NMDA exposure. The effect of apoE peptide (133-149) on NMDA (100 μM or 300 μM)-induced LDH release was next assessed and the dose-response curve was obtained in a separate set of sister cultures that were simultaneously treated under one of the following conditions: (1) various doses of peptide (0.3 μM, 1 μM, 3 μM, 6 μM, 10 μM final concentration) were added to the culture immediately prior to and removed at the end of NMDA exposure; (2) no peptide, NMDA exposure; (3) no peptide, no NMDA exposure; (4) no peptide, NMDA exposure with 10 μM MK-801 for 30 minutes. The effect of a scrambled control peptide on NMDA-induced LDH release was similarly assessed.
The effect of time of administration of apoE peptide (133-149) on NMDA-induced LDH release was assessed in a separate set of sister cultures that were simultaneously treated under one of following conditions: (1) peptide was added to the culture medium 24 h prior to and removed immediately before exposure to NMDA; (2) peptide was added immediately prior to and removed at the end of the NMDA exposure; (3) peptide was added immediately following the 30 minutes NMDA exposure; (4) no peptide, NMDA exposure; (5) no peptide, no NMDA exposure. […]

[5] = test system: primary rat neuronal/glial cultures exposed to NMDA; assay: NMDA-induced 45Ca uptake by primary neuronal-glial cultures; assay type: cell-based; settings: 6 μM peptide, 100 μM NMDA
Protocol: as §2
Cellular calcium uptake from the extracellular space was assessed using ^45CaCl2 (American Radiolabeled Chemicals, St. Louis, Mo.). After washing the cultures with Mg^2+-free BSS containing 20 mM HEPES buffer, 6 μM peptide or 10 μM MK-801 was added to each well prior to and removed at the end of 100 μM NMDA exposure. ^45Ca (0.28 μCi/ml, 0.9 μCi/well) was added to each well immediately prior to NMDA exposure. The cultures were returned to the incubator and maintained at 37° C. Twenty minutes later, the exposure medium was removed and each well was washed 3 times with ice-cold Mg^2+-free BSS containing 20 mM HEPES buffer. The cells were subsequently lysed by addition of 0.2% sodium dodecyl sulfate (SDS). An aliquot from each well was added to a liquid scintillation vial containing 10 ml Cytoscint™ (ICN, Biochemical Research Product, CA) and radioactivity was determined by scintillation counting and normalized to cell count.

Row | Substance | cells examined showing increase in [Ca2+]i [1] | concentration dependence of [Ca2+]i increase [1] | increase in [Ca2+]i levels compared to buffer [1] | [Ca2+]i level in treated cells, typical experiment ([1]; unstimulated cells 95.33±7.37 nM) [nM] | increase in IP3 levels [2] | concentration dependence of IP3 increase ([2]; stimulated 60 s) | [Ca2+]i response on repeated or sequential ligand exposure (desensitization) [3] | protection against NMDA toxicity (LDH release), dose response [4] | NMDA-induced calcium influx compared to NMDA alone [5]
1 | apoE: Example 10: human recombinant apoE2 obtained commercially from Panvera Corp | 70-80% | dose-dependent | 2-4 fold | 180.25 ± 14.57 | 1.5-2.0 fold | dose-dependent | marked attenuation in [Ca^2+]i suggesting tachyphylaxis; also recorded: loss of [Ca^2+]i response to apoE addition following initial exposure to peptide |  | 
2 | scrambled control peptide: Example 10: scrambled control of identical size and amino acid composition to the 20 amino acid ApoE mimetic peptide (Ac-LARKLRSRLVHLRLKLR-NH2) [reference compound] |  |  | no effect |  |  |  | No desensitization in calcium response | no protection was observed | no effect on calcium influx
